In PubChem BioAssay AID1963836 (Molecular Pharmacology Branch, DTP, NCI, 2024):
Several values for one entry are separate records, joined by “and”; a condition that tells them apart may be missing. Identical values can stand only once.

System: 857933-349-R-J2-PDC complex spheroid viability
Assay: Anticancer human tumor 857933-349-R-J2-PDC patient-derived colon adenocarcinoma cell line growth inhibition [POLQ]
Settings: for viability, T/C: stronger effect = lower value
Method: Multicellular complex tumor spheroid response to Polymerase (POL) inhibitors (novobiocin, ART-558, RP6685) in combination with a variety of drugs and investigational agents in selected tumor cell lines
The POL inhibitors (novobiocin, ART-558, and RP6685) were evaluated both individually and in combination with standard of care and investigational anticancer small molecules within a complex spheroid model of solid tumors. . Complex spheroids include a stromal component modeled by human endothelial cells (HUVEC) and fibroblasts modeled by human mesenchymal stem cells (MSCs). The concentration ranges selected for each drug and investigational agent were based upon clinically achievable concentrations if the clinical Cmax of the agent was known.
Compounds. The drugs and investigational agents: novobiocin (NSC847541), ART-558 (NSC835418), RP-6685 (NSC848927), peposertib (NSC802822), ceralasertib (NSC780249), elimusertib (NSC800525), camonsertib (NSC841442), AZD-1390 (NSC803789), olaparib (NSC753686), talazoparib (NSC767125), rucaparib (NSC756644), sotorasib (NSC818433), MRTX-1133 (NSC836407), SN-38 (NSC673596), topotecan (NSC609699), epotoside (NSC141540), doxorubicin (NSC123127), gemcitabine (NSC613327), 5-fluorouracil (NSC19893), paclitaxel (NSC125973), vemurafenib (NSC761431), MSA-2 (NSC828583), SN-011 (NSC837082), adavosertib (NSC754352), prexasertib (NSC758257), carboplatin (NSC241240) and oxaliplatin (NSC266046), were obtained from the National Cancer Institute (NCI) Developmental Therapeutics Program Chemical Repository (21). The FDA-approved anticancer drug set is available from the Developmental Therapeutics Program at https://dtp.cancer.gov/organization/dscb/obtaining/. […] The stock solutions were prepared in dimethyl sulfoxide (DMSO, Sigma-Aldrich, St. Louis, MO, cat. D2650), except for the platinum compounds which were prepared in saline (Quality Biological, Gaithersburg, MD, cat. 114-055-101), at 800-fold the tested concentration and stored at -70 degrees C prior to their use. All drugs and investigational agents were tested over a range starting from a high concentration at or near the clinical Cmax and decreasing in half-log increments. If the clinical Cmax for an agent had not been determined, the highest concentration tested was 10 microM, except for SN-38, which was tested at a high concentration of 1 microM.
Cell Culture. All cells were maintained in an incubator at 37 degrees C and 5% CO2 with 95% humidity. The PDC lines were cultured according to standard operating procedures established by the NCI PDMR (https://pdmr.cancer.gov). Table 3 of the manuscript, lists the cell lines along with the number of the three cell types plated to form the mct-spheroids and media for tumor cell growth. After thawing, all PDC lines, except 997537-175-T-J1-PDC and 415267-285-R-J2-PDC, were cultured in Matrigel-coated flasks prepared with a working solution of 1X Ham's F-12 nutrient mix, without supplementation (Thermo Fisher Scientific, cat. 11765054), 100 U/mL penicillin-streptomycin (Thermo Fisher Scientific, cat. 15140122), and 2.5% Matrigel (Corning Inc., Corning, NY, cat. 354248) for the first three passages. The two PDC lines 997537-175-T-J1-PDC and 415267-285-R-J2-PDC were cultured on uncoated flasks. The 857933-349-R-J2-PDC line was cultured in 6C/Colon 1B media containing advanced DMEM/F-12 (Thermo Fisher Scientific, cat. 12634028), 10 mM HEPES (Thermo Fisher Scientific, cat. 15630080), 1X GlutaMAX supplement (Thermo Fisher Scientific, cat. 35050061), 0.1 mg/mL primocin (InvivoGen, San Diego, CA, cat. ant-pm-2), 10% defined fetal bovine serum, heat inactivated (HyClone Laboratories Inc., Logan, UT, cat. SH30070.03HI), 50% L-WRN conditioned media (ATCC, cat. CRL-3276), 1.25 mM N-Acetyl-L-cysteine (Sigma-Aldrich, cat. A9165), 10 mM nicotinamide (Sigma-Aldrich, cat. N0636), 1X B-27 supplement (Thermo Fisher Scientific, cat. 17504044), 1X N-2 supplement (Thermo Fisher Scientific, cat. […]

[1] = curve of first compound, second compound 0.0316 µM
[2] = curve of first compound, second compound 0.1 µM
[3] = curve of first compound, second compound 0.316 µM
[4] = curve of first compound, second compound 1 µM
[5] = curve of first compound, second compound 3.16 µM
[6] = curve of first compound, second compound 10 µM
[7] = second compound 0.0316 µM, first compound 0.0316 µM
[8] = second compound 0.0316 µM, first compound 0.1 µM
[9] = second compound 0.0316 µM, first compound 0.316 µM
[10] = second compound 0.0316 µM, first compound 1 µM
[11] = second compound 0.0316 µM, first compound 3.16 µM
[12] = second compound 0.0316 µM, first compound 10 µM
[13] = second compound 0.1 µM, first compound 0.0316 µM
[14] = second compound 0.1 µM, first compound 0.1 µM
[15] = second compound 0.1 µM, first compound 0.316 µM
[16] = second compound 0.1 µM, first compound 1 µM
[17] = second compound 0.1 µM, first compound 3.16 µM
[18] = second compound 0.1 µM, first compound 10 µM
[19] = second compound 0.316 µM, first compound 0.0316 µM
[20] = second compound 0.316 µM, first compound 0.1 µM
[21] = second compound 0.316 µM, first compound 0.316 µM
[22] = second compound 0.316 µM, first compound 1 µM
[23] = second compound 0.316 µM, first compound 3.16 µM
[24] = second compound 0.316 µM, first compound 10 µM
[25] = second compound 1 µM, first compound 0.0316 µM
[26] = second compound 1 µM, first compound 0.1 µM
[27] = second compound 1 µM, first compound 0.316 µM
[28] = second compound 1 µM, first compound 1 µM
[29] = second compound 1 µM, first compound 3.16 µM
[30] = second compound 1 µM, first compound 10 µM
[31] = second compound 3.16 µM, first compound 0.0316 µM
[32] = second compound 3.16 µM, first compound 0.1 µM
[33] = second compound 3.16 µM, first compound 0.316 µM
[34] = second compound 3.16 µM, first compound 1 µM
[35] = second compound 3.16 µM, first compound 3.16 µM
[36] = second compound 3.16 µM, first compound 10 µM
[37] = second compound 10 µM, first compound 0.0316 µM
[38] = second compound 10 µM, first compound 0.1 µM
[39] = second compound 10 µM, first compound 0.316 µM
[40] = second compound 10 µM, first compound 1 µM
[41] = second compound 10 µM, first compound 3.16 µM
[42] = second compound 10 µM, first compound 10 µM
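Note: spheroids exposed to compounds for seven days before readout.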

COc1ccc([C@@H](O)c2cc(-c3ncnc4cc(N5CCOCC5)ccc34)c(F)cc2Cl)nn1 + Nc1ccc(C#CCN(C(=O)Cc2ncc(C(F)(F)F)cc2C(F)(F)F)c2ccc(F)cc2)nn1
IC50 [1]: > 10 µM
IC50 [2]: > 10 µM
IC50 [3]: 9.69 µM
IC50 [4]: > 10 µM
IC50 [5]: > 10 µM
IC50 [6]: > 10 µM
viability, T/C [7]: 86.3%
viability, T/C [8]: 104%
viability, T/C [9]: 103%
viability, T/C [10]: 92.6%
viability, T/C [11]: 77.2%
viability, T/C [12]: 56.2%
viability, T/C [13]: 91.4%
viability, T/C [14]: 100%
viability, T/C [15]: 96.8%
viability, T/C [16]: 84.3%
viability, T/C [17]: 78.6%
viability, T/C [18]: 60.8%
viability, T/C [19]: 84.6%
viability, T/C [20]: 91.2%
viability, T/C [21]: 81.2%
viability, T/C [22]: 94.7%
viability, T/C [23]: 80.7%
viability, T/C [24]: 48.7%
viability, T/C [25]: 96.8%
viability, T/C [26]: 89.3%
viability, T/C [27]: 93.4%
viability, T/C [28]: 76.6%
viability, T/C [29]: 84.5%
viability, T/C [30]: 59.6%
viability, T/C [31]: 88.2%
viability, T/C [32]: 95.8%
viability, T/C [33]: 86.5%
viability, T/C [34]: 84.1%
viability, T/C [35]: 75.3%
viability, T/C [36]: 60%
viability, T/C [37]: 99.9%
viability, T/C [38]: 89.8%
viability, T/C [39]: 95.3%
viability, T/C [40]: 76.3%
viability, T/C [41]: 76.8%
viability, T/C [42]: 51.6%

CCc1cc2c(N3CCc4c(cc(Cn5ccnc5)cc4-c4cn(C)nc4C(F)(F)F)C3=O)cc(C)nc2c(OC)n1
viability, T/C (compound 0.0316 µM): 87% and 98.2% and 83.5%
viability, T/C (compound 0.1 µM): 84.3% and 88% and 82%
viability, T/C (compound 0.316 µM): 97.7% and 105% and 92.7%
viability, T/C (compound 1 µM): 61.2% and 84.8% and 84%
viability, T/C (compound 3.16 µM): 65% and 78.1% and 61.3%
viability, T/C (compound 10 µM): 54.8% and 53.6% and 58.1%
IC50 (curve of compound): > 10 µM

Cn1ncnc1[C@H]1c2n[nH]c(=O)c3cc(F)cc(c23)N[C@@H]1c1ccc(F)cc1 + Nc1ccc(C#CCN(C(=O)Cc2ncc(C(F)(F)F)cc2C(F)(F)F)c2ccc(F)cc2)nn1
IC50 [1]: > 0.1 µM
IC50 [2]: > 0.1 µM
IC50 [3]: > 0.1 µM
IC50 [4]: > 0.1 µM
IC50 [5]: > 0.1 µM
IC50 [6]: > 0.1 µM
viability, T/C (second compound 0.0316 µM, first compound 0.000316 µM): 90.9%
viability, T/C (second compound 0.0316 µM, first compound 0.001 µM): 83.9%
viability, T/C (second compound 0.0316 µM, first compound 0.00316 µM): 80.7%
viability, T/C (second compound 0.0316 µM, first compound 0.01 µM): 90%
viability, T/C [7]: 95%
viability, T/C [8]: 85.1%
viability, T/C (second compound 0.1 µM, first compound 0.000316 µM): 92.7%
viability, T/C (second compound 0.1 µM, first compound 0.001 µM): 92.7%
viability, T/C (second compound 0.1 µM, first compound 0.00316 µM): 94%
viability, T/C (second compound 0.1 µM, first compound 0.01 µM): 104%
viability, T/C [13]: 103%
viability, T/C [14]: 91.5%
viability, T/C (second compound 0.316 µM, first compound 0.000316 µM): 104%
viability, T/C (second compound 0.316 µM, first compound 0.001 µM): 101%
viability, T/C (second compound 0.316 µM, first compound 0.00316 µM): 97%
viability, T/C (second compound 0.316 µM, first compound 0.01 µM): 105%
viability, T/C [19]: 75%
viability, T/C [20]: 97.6%
viability, T/C (second compound 1 µM, first compound 0.000316 µM): 105%
viability, T/C (second compound 1 µM, first compound 0.001 µM): 85.8%
viability, T/C (second compound 1 µM, first compound 0.00316 µM): 86%
viability, T/C (second compound 1 µM, first compound 0.01 µM): 97.5%
viability, T/C [25]: 93.9%
viability, T/C [26]: 93.6%
viability, T/C (second compound 3.16 µM, first compound 0.000316 µM): 86.2%
viability, T/C (second compound 3.16 µM, first compound 0.001 µM): 80.2%
viability, T/C (second compound 3.16 µM, first compound 0.00316 µM): 93.5%
viability, T/C (second compound 3.16 µM, first compound 0.01 µM): 98%
viability, T/C [31]: 111%
viability, T/C [32]: 94.2%
viability, T/C (second compound 10 µM, first compound 0.000316 µM): 84.8%
viability, T/C (second compound 10 µM, first compound 0.001 µM): 82.1%
viability, T/C (second compound 10 µM, first compound 0.00316 µM): 98.3%
viability, T/C (second compound 10 µM, first compound 0.01 µM): 92.2%
viability, T/C [37]: 93.2%
viability, T/C [38]: 61.7%

O=C(Nc1ccc(O)c(NS(=O)(=O)c2ccc(F)cc2)c1)c1ccc(-c2ccccc2)cc1 + Cc1cccc(N(C)C(=O)C2C(O)CCN2c2nc(C)cc(C(F)(F)F)c2C#N)c1
IC50 [1]: > 10 µM
IC50 [2]: > 10 µM
IC50 [3]: > 10 µM
IC50 [4]: > 10 µM
IC50 [5]: > 10 µM
IC50 [6]: > 10 µM
viability, T/C [7]: 90.2%
viability, T/C [8]: 85.2%
viability, T/C [9]: 88.2%
viability, T/C [10]: 90.6%
viability, T/C [11]: 90.3%
viability, T/C [12]: 92.5%
viability, T/C [13]: 97.7%
viability, T/C [14]: 86.2%
viability, T/C [15]: 87%
viability, T/C [16]: 97.5%
viability, T/C [17]: 91.9%
viability, T/C [18]: 90.8%
viability, T/C [19]: 97.7%
viability, T/C [20]: 85.5%
viability, T/C [21]: 97.8%
viability, T/C [22]: 93.4%
viability, T/C [23]: 88.9%
viability, T/C [24]: 70.8%
viability, T/C [25]: 99.1%
viability, T/C [26]: 82%
viability, T/C [27]: 96.8%
viability, T/C [28]: 95.4%
viability, T/C [29]: 114%
viability, T/C [30]: 93%
viability, T/C [31]: 97.9%
viability, T/C [32]: 95.9%
viability, T/C [33]: 97.6%
viability, T/C [34]: 93.4%
viability, T/C [35]: 96.8%
viability, T/C [36]: 77.7%
viability, T/C [37]: 95.3%
viability, T/C [38]: 105%
viability, T/C [39]: 91%
viability, T/C [40]: 90%
viability, T/C [41]: 88.6%
viability, T/C [42]: 73.8%
